# Like-named read-outs stand apart in the source and are kept apart here.
# Legend:
# [1] = biological target: T1, Voltage gated sodium channel (Nav1.5 channel) encoded by SCN5A gene (Homo sapiens, UniProt Q14524); assay: Nav test (QPatch whole cell patch clamp); format: cell-based; details: HEK cells expressing Nav1.5, applied 5 minutes or more, room temperature
# T1 construct: expressed in transfected cells; host or cells: HEK cells
# Protocol: A cell was retained at a membrane potential of −100 mV by whole cell patch clamp method using a fully automated patch clamp system (QPatch; Sophion Bioscience A/S), and INa induced by depolarization pulse stimulation at −10 mV for 20 ms was recorded. […] The extracellular solution in which the medium and the compound of the present invention had been dissolved at each objective concentration was applied to the cell for 5 minutes or more under conditions of room temperature.
# HIV [2] = assay: Anti-HIV activity (MT-4 cells, MTT); format: cell-based; details: Human immunodeficiency virus 1, MT4, 96 h, read-out: EC50_nM (50% HIV inhibitory concentration)
# Protocol: Serial dilutions of a test sample were prepared in a 96-well microplate (50 μL/well). 2.5×10^5 cells/mL of an MT-4 cell suspension was dispensed at 100 μL/well to the plate containing the test sample. Then, an HIV virus solution was dispensed at 50 μL/well. The plate was mixed with a plate mixer and cultured for 4 days in a CO2 incubator. An MTT (3-(4,5-dimethylthiazol-2-yl)-2,5-diphenyltetrazolium bromide) solution was dispensed at 30 μL/well. The plate was reacted for 1 hour in a CO2 incubator. 150 μL of the supernatant was removed from each well so as not to take up the cells. 150 μL of a cell lysis solution was added to each well and well mixed with a plate mixer until the cells were completely lysed. The absorbance of the mixed plate was measured at two wavelengths of 560 nm and 690 nm using a microplate reader.
# [3] = format: in vitro ADME; details: human, 30 min, 0.5 μmol/L, pH 7.4
# Protocol: Using commercially available pooled human liver microsomes, a compound of the present invention was reacted for a constant time, and a remaining rate was calculated by comparing a reacted sample and an unreacted sample, thereby, a degree at which the compound of the present invention was metabolized in liver was assessed.
# A reaction was performed (oxidative reaction) at 37° C. for 0 minute or 30 minutes in the presence of 1 mmol/L NADPH in 0.2 mL of a buffer solution (50 mmol/L Tris-HCl pH 7.4, 150 mmol/L potassium chloride, 10 mmol/L magnesium chloride) containing 0.5 mg protein/mL of human liver microsomes. After the reaction, 50 μL of the reaction solution was added to 100 μL of a solution of methanol/acetonitrile=1/1 (v/v), and the mixture was mixed and centrifuged at 3000 rpm for 15 minutes. The compound of the present invention in the centrifugation supernatant was quantified by LC/MS/MS or solid-phase extraction (SPE)/MS. The amount of the compound of the present invention remaining after the reaction was calculated with the amount of the compound at 0 minutes of the reaction defined as 100%.
# CYP3A4 = biological target: T2, CYP3A4 (Homo sapiens, UniProt P08684); assay: CYP3A4 (MDZ) MBI test; format: in vitro ADME; details: pooled human liver microsomes, midazolam 1-hydroxylation, IC 0 min preincubation/IC 30-min preincubation
# T2 construct: from tissue; host or cells: pooled human liver microsomes
# Protocol: This test as to the inhibition of CYP3A4 by the compound of the present invention is to evaluate mechanism based inhibition (MBI) ability from enhancement in inhibitory effect, caused by a metabolism reaction, of the compound of the present invention. CYP3A4 inhibition was evaluated using pooled human liver microsomes by 1-hydroxylation reaction of midazolam (MDZ) as a marker reaction. […]
# A part of pre-reaction solution was transferred to another 96-well plate, and 1/10 diluted by K-Pi buffer solution containing a substrate. […] After each plate where the marker reaction has been performed was centrifuged at 3000 rpm for 15 minutes, 1-hydroxymidazolam in the centrifugation supernatant was quantified by LC/MS/MS.
# Only a solvent DMSO used for dissolving the compound was added to the reaction solution instead of the compound of the present invention, and the mixture was used as a control (100%). Remaining activity (%) was calculated at the time of the addition of the compound of the present invention at each concentration, and IC value was calculated by inverse estimation based on a logistic model using the concentrations and the rates of inhibition. A shifted IC value is calculated from IC from the 0 min preincubation/IC from the 30-min preincubation. […]
# [4] = system: HIV mutant strain 1 (E138K/G140S/Q148H/N155H); format: cell-based; details: FC=EC50 of the mutant strain/EC50 of the wild strain, HeLa-CD4 cells
# Protocol: (§1) Serial dilutions of a test sample were prepared in a 96-well microplate (50 μL/well). 2.5×10^5 cells/mL of a HeLa-CD4 cell suspension was dispensed at 100 μL/well to the plate containing the test sample. Then, an HIV virus solution (wild strain and mutant strain) was dispensed at 50 μL/well. The plate was mixed with a plate mixer and cultured for 3 days in a CO2 incubator. The culture supernatant in each well was removed by suction. A cell lysis buffer in a reporter assay kit was dispensed at 100 μL/well, and the plate was frozen in a freezer (−80° C.). The plate frozen in a freezer was thawed at room temperature, then mixed with a plate mixer, and centrifuged at 1,200 rpm for 5 minutes. The supernatant of each well was dispensed at 20 μL/well to a 96-well microplate (BLACK). A chemiluminescent in the reporter assay kit reagent was dispensed at 100 μL/well and reacted at room temperature for approximately 1 hour. Then, luminescence intensity was measured using MicroBeta TRILUX.
# [5] = system: HIV mutant strain 2 (E92Q/E138T/G140S/Q148H); format: cell-based; details: FC=EC50 of the mutant strain/EC50 of the wild strain, HeLa-CD4 cells
# Protocol: as §1
# [6] = Clearance evaluation test (rat, intravenous); format: in vivo; details: plasma, 1 umol/kg, rats, intravenous 1 μmol/kg; for half-life: read-out: elimination half-life (t½) (converted); for clearance: read-out: total body clearance (CLtot)
# Text: Experimental Material and Method
# (1) Animals used: rats were used.
# (2) Rearing conditions: the rats were allowed to freely take solid feed and sterilized tap water.
# (3) Dose and grouping setting: a given dose was intravenously administered. Groups were set as follows:
# Intravenous administration: 1 μmol/kg (n=2)
# (4) Preparation of dosing solution: the test sample was solubilized using a solvent of dimethyl sulfoxide/propylene glycol=1/1 and administered.
# (5) Administration method: the test sample was administered to the tail vein through a syringe with an injection needle.
# (6) Evaluation item: blood was collected over time, and the concentration of the compound of the present invention in plasma was measured using LC/MS/MS.
# (7) Statistical analysis: total body clearance (CLtot) and elimination half-life (t½) were calculated as to change in the concentration of the compound of the present invention in plasma by the moment analysis method.
# HIV [7] = assay: Anti-HIV activity evaluation test using PBMC of a healthy subject; format: cell-based; details: Human immunodeficiency virus 1, 96 h, read-out: 90% HIV inhibitory concentration (EC90); PHA-stimulated PBMC, cultured 4 days, reverse transcriptase activity
# Protocol: Serial dilutions of a test sample were prepared in a 96-well microplate (50 μL/well). PBMC stimulated with 1.0×10^5 cells/well of Phytohemagglutinin (PHA) and an HIV virus solution were mixed for the required number of wells, and the mixture was reacted at 37° C. for 1 hour. After the reaction, the cell suspension was centrifuged and the supernatant discarded. The infected cells were dispersed in a culture solution for the required number of wells at 150 μL/well, and 150 μL/well was dispensed to a 96-well microplate containing a test sample. The plate was mixed with a plate mixer and cultured for 4 days in a C02 incubator. The reverse transcriptase activity in the culture solution was measured.
# HIV [8] = assay: Anti-HIV activity evaluation test in the presence of human serum protein (MT-4 cells); format: cell-based; details: PS=4×(EC50 with 25% human serum protein/EC50 without), 100% extrapolated value
# Protocol: Serial dilutions of a test sample were prepared in a 96-well microplate (50 μL/well). A human serum protein solution (human serum protein concentration: 50%) was dispensed into a 96-well microplate containing a test sample in an amount of 100 μL/well, and left standing at room temperature for 1 hour. 100 μL/well of the culture solution was dispensed to a plate without serum. 3.0×10^5 cells/well of MT-4 cells and 3 μL/well of HIV virus solution were mixed for the required number of wells and the mixture was reacted at 37° C. for 1 hour. After the reaction, the cell suspension was centrifuged and the supernatant discarded. The infected cells were dispersed in a culture solution for the required number of wells at 50 μL/well, and 50 μL/well was dispensed to a 96-well microplate containing the test sample and human serum protein (human serum protein final concentration: 25%). The plate was mixed with a plate mixer and cultured for 4 days in a CO2 incubator. An MTT (3-(4,5-dimethylthiazol-2-yl)-2,5-diphenyltetrazolium bromide) solution was dispensed at 30 μL/well. The plate was reacted for 1 hour in a CO2 incubator. 150 μL of the supernatant was removed from each well so as not to take up the cells. […] The absorbance of the mixed plate was measured at two wavelengths of 560 nm and 690 nm using a microplate reader. […]
# T1 sequence (Q14524 whole entry): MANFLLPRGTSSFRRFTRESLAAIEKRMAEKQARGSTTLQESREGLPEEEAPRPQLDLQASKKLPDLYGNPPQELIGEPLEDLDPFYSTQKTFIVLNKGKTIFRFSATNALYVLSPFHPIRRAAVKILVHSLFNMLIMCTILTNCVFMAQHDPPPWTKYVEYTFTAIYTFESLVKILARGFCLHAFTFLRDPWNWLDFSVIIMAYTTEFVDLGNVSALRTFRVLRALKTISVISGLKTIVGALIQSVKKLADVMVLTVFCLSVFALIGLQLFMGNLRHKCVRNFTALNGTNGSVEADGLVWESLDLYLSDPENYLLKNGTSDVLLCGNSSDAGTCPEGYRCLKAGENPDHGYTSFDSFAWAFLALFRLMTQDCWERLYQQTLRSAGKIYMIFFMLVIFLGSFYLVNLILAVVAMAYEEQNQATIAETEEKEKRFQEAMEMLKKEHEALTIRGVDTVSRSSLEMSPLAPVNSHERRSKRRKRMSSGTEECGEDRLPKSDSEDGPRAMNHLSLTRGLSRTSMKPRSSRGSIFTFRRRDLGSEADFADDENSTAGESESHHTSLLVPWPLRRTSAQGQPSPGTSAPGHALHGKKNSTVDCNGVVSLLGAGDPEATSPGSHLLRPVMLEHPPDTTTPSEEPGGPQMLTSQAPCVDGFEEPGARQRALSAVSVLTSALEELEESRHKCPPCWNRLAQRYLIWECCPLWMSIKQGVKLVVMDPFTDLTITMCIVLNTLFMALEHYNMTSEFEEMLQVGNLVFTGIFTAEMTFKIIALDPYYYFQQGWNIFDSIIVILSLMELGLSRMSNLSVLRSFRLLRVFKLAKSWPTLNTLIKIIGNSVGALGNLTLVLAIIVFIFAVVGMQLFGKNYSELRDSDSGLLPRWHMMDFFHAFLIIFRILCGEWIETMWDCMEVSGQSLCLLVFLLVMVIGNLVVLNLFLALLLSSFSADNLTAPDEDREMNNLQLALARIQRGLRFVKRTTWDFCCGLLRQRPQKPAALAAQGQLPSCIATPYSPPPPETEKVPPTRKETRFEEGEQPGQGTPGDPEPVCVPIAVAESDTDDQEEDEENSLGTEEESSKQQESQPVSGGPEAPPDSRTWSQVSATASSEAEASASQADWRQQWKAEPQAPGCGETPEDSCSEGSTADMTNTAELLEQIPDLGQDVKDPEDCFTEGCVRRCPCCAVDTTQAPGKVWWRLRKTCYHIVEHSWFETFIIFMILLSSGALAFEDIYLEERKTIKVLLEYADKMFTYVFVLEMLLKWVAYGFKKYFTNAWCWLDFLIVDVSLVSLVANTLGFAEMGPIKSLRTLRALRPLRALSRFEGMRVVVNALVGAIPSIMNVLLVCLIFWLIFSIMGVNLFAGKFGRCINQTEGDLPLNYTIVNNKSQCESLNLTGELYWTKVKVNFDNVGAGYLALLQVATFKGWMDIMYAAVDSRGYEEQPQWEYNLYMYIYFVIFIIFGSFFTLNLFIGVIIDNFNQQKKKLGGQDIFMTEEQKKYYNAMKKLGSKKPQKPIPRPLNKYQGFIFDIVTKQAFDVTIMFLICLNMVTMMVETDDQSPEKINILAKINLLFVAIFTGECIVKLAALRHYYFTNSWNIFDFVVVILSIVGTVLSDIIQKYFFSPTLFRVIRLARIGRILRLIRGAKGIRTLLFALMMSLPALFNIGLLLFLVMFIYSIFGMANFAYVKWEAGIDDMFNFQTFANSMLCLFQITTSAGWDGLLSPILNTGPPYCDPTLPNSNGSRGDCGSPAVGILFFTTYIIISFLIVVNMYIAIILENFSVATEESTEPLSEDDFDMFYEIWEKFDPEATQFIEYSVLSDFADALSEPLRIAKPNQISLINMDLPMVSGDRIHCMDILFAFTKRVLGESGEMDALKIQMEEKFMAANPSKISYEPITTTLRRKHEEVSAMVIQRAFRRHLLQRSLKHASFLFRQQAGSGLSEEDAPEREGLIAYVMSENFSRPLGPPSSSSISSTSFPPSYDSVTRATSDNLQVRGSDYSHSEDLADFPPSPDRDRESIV
# T2 sequence (P08684 whole entry): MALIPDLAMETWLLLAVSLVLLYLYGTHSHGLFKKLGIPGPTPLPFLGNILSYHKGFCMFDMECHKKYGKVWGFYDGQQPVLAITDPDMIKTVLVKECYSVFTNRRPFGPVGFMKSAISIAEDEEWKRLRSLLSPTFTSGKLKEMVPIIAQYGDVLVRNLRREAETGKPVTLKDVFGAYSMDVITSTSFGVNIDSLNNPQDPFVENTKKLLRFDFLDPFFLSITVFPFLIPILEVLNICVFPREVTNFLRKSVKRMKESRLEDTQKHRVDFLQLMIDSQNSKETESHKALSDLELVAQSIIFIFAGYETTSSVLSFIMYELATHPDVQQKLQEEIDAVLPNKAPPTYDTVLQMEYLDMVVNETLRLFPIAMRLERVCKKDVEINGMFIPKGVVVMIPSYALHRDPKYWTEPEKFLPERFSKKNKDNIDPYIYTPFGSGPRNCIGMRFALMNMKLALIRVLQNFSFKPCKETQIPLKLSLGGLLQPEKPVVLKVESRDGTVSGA
"EC50 (HIV [2]; MT-4 cells, cultured 4 days, MTT) [nM]",SMILES,ratio of maximum peak current (INa) with compound relative to medium [1] [%],EC50 (HIV [2]) [nM],residual rate [3],CYP3A4 MBI grade (shifted IC) (CYP3A4),FC (fold change) for mutant strain 1 [4],FC (fold change) for mutant strain 2 [5],half-life [6] [h],clearance [6] [mL/h/kg],EC90 (HIV [7]) [nM],potency shift (PS) in the presence of human serum protein (HIV [8])
–,CCN1C(=O)c2c(O)c(=O)c(-c3nnc(Cc4c(F)cc(F)cc4F)s3)cn2N2[C@H](COC)CC[C@@H]12 [II-037],88.8,0.62,93.4,(−) (shifted IC of 1.0 or less is graded as negative (−)),10,11,–,–,–,–
–,CN1C(=O)c2c(O)c(=O)c(-c3nnc(Cc4ccc(F)cc4F)s3)cn2N2CCCC[C@@H]12 [II-003],96.7,0.62,109,–,8.8,12,–,–,–,–
–,CCN1C(=O)c2c(O)c(=O)c(-c3nnc(Cc4ccc(F)cc4F)s3)cn2N2[C@H](COC)CC[C@@H]12 [II-024],89.3,0.13,96.5,–,8.2,11,23.6,2.18,–,–
–,CCN1C(=O)c2c(O)c(=O)c(-c3nnc(Cc4ccc(F)cc4F)s3)cn2N2C[C@@H](C)C[C@@H]12 [II-023],93.3,1.2,98.3,–,4.1,2.5,–,–,1.7,56
–,CCN1C(=O)c2c(O)c(=O)c(-c3nnc(Cc4c(F)cc(F)cc4F)s3)cn2N2CCOC[C@@H]12 [II-018],109,0.52,95.3,–,15,20,–,–,–,–
–,C[C@H]1CC[C@H]2N(C)C(=O)c3c(O)c(=O)c(-c4nnc(Cc5ccc(F)cc5F)s4)cn3N2C1 [II-041],78.8,0.25,95.5,–,5.8,8,–,–,–,–
–,CCN1C(=O)c2c(O)c(=O)c(-c3nnc(Cc4ccc(F)cc4F)s3)cn2N2C[C@@H]3CC[C@@H](C3)[C@@H]12 [II-051],–,0.66,92.9,(−) (shifted IC of 1.0 or less is graded as negative (−)),2.5,3.9,–,–,–,–
–,CCN1C(=O)c2c(O)c(=O)c(-c3nnc(Cc4cc(F)c(F)cc4F)s3)cn2N2CCCC[C@@H]12 [Compound I-012],97.1,4.8,72.2,–,23,46,–,–,–,–
32,CCN1C(=O)c2c(O)c(=O)c(-c3cnn(Cc4ncc(Cl)cc4F)c3)cn2N2CCCC[C@@H]12 [II-013],–,–,–,–,–,–,35.4,1.36,–,–

# Source: patent US11453669B2, “Polycyclic pyridone derivative” (Shionogi & Co., Ltd., priority 2018, dated 2022)
